For data set [1] the following is noted: phase solubility analysis; cited from earlier work.
The nature of another data set: physchem. Format: physicochemical. The note with it: identical conditions (deionized water, room temperature, 24 hours); read-out: equilibrium solubility of diclofenac sodium in the absence of beta cyclodextrin. The method, then: The vial is sealed and placed in a laboratory shaker. The mixture is allowed to shake for 5 minutes and then equilibrated for 24 hours. The supernatant is filtered through a 0,22 micron filter and analyzed for diclofenac concentration by HPLC.

Consider `O=C(O)Cc1ccccc1Nc1c(Cl)cccc1Cl` [diclofenac, 2-[(2,6-dichlorophenyl)amino]benzeneacetic acid], for which the “effect of beta-cyclodextrin and hydroxyalkyl ether derivatives on aqueous solubility of diclofenac” value in data set [1] was “increase the aqueous solubility”.

Turning to `O=C(O)Cc1ccccc1Nc1c(Cl)cccc1Cl` [diclofenac sodium], the solubility thermodynamic at 24 h in the data set “physchem” was 5 mg/mL.
